Experimental data as given in paper PMC9492542, “Brain-restricted mTOR inhibition with binary pharmacology” (Nature, 2022).
Like-named read-outs stand apart in the source and are kept apart here.

Assays:
476 purified kinases [1] = target: 476 purified kinases (Homo sapiens, UniProt Q9UQM7); details: ZLYTE
Method: (§1) In vitro kinase inhibition assays were performed by SelectScreen Services (Thermo Fisher Scientific) using either Z’-LYTE (mTOR, Src, Csk, EGFR, HER2 and HGK), Adapta (LRRK2) or LanthaScreen (DDR2) assay format (standardized protocols can be accessed on the SelectScreen website: https://www.thermofisher.com/us/en/home/products-and-services/services/custom-services/screening-and-profiling-services/selectscreen-profiling-service/selectscreen-kinase-profiling-service.html. When indicated, recombinant FKBP12 protein was added to the assay mixture to a final concentration of 10 µM.

476 purified kinases [2] = target: 476 purified kinases (Homo sapiens, UniProt P48729); details: ZLYTE
Method: as §1

476 purified kinases [3] = target: 476 purified kinases (Homo sapiens, UniProt Q9UEW8)
Method: as §1

476 purified kinases [4] = target: 476 purified kinases (Homo sapiens, UniProt P45985)
Method: as §1

476 purified kinases [5] = target: 476 purified kinases (Homo sapiens, UniProt O00311)
Method: as §1

476 purified kinases [6] = target: 476 purified kinases (Homo sapiens, UniProt P37173)
Method: as §1

476 purified kinases [7] = target: 476 purified kinases (Homo sapiens, UniProt Q96NX5); details: ZLYTE
Method: as §1

476 purified kinases [8] = target: 476 purified kinases (Homo sapiens, UniProt Q9UEE5)
Method: as §1

476 purified kinases [9] = target: 476 purified kinases (Homo sapiens, UniProt Q14004)
Method: as §1

476 purified kinases [10] = target: 476 purified kinases (Homo sapiens, UniProt P35916); details: ZLYTE
Method: as §1

476 purified kinases [11] = target: 476 purified kinases (Homo sapiens, UniProt Q09013)
Method: as §1

476 purified kinases [12] = target: 476 purified kinases (Homo sapiens, UniProt Q86YV6)
Method: as §1

476 purified kinases [13] = target: 476 purified kinases (Homo sapiens, UniProt Q8N4C8); details: ZLYTE
Method: as §1

476 purified kinases [14] = target: 476 purified kinases (Homo sapiens, UniProt P35626); details: ZLYTE
Method: as §1

476 purified kinases [15] = target: 476 purified kinases (Homo sapiens, UniProt Q9NR20); details: ZLYTE
Method: as §1

476 purified kinases [16] = target: 476 purified kinases (Homo sapiens, UniProt P48426)
Method: as §1

476 purified kinases [17] = target: 476 purified kinases (Homo sapiens, UniProt Q99683)
Method: as §1

476 purified kinases [18] = target: 476 purified kinases (Homo sapiens, UniProt Q9UBE8)
Method: as §1

476 purified kinases [19] = target: 476 purified kinases (Homo sapiens, UniProt Q9H3Y6); details: ZLYTE
Method: as §1

476 purified kinases [20] = target: 476 purified kinases (Homo sapiens, UniProt Q86UX6)
Method: as §1

476 purified kinases [21] = target: 476 purified kinases (Homo sapiens, UniProt Q92630)
Method: as §1

476 purified kinases [22] = target: 476 purified kinases (Homo sapiens, UniProt Q13177); details: ZLYTE
Method: as §1

476 purified kinases [23] = target: 476 purified kinases (Homo sapiens, UniProt Q99755)
Method: as §1

476 purified kinases [24] = target: 476 purified kinases (Homo sapiens, UniProt P49761); details: ZLYTE
Method: as §1

476 purified kinases [25] = target: 476 purified kinases (Homo sapiens, UniProt Q9UPE1); details: ZLYTE
Method: as §1

476 purified kinases [26] = target: 476 purified kinases (Homo sapiens, UniProt Q6DT37); details: ZLYTE
Method: as §1

476 purified kinases [27] = target: 476 purified kinases (Homo sapiens, UniProt Q8N568); details: ZLYTE
Method: as §1

Sequence of 476 purified kinases (Homo sapiens, UniProt P48426) (P48426 whole entry): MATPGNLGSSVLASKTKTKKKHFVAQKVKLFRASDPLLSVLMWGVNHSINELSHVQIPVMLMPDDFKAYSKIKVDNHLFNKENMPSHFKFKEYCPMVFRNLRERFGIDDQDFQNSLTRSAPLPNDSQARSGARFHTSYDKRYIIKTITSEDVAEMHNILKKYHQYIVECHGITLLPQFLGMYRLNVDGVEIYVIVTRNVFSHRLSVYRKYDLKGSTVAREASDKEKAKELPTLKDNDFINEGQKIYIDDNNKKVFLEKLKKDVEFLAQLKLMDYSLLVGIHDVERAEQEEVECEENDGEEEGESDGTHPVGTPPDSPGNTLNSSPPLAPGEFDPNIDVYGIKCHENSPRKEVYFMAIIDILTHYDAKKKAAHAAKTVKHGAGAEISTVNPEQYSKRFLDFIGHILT
Sequence of 476 purified kinases (Homo sapiens, UniProt P35626) (P35626 whole entry): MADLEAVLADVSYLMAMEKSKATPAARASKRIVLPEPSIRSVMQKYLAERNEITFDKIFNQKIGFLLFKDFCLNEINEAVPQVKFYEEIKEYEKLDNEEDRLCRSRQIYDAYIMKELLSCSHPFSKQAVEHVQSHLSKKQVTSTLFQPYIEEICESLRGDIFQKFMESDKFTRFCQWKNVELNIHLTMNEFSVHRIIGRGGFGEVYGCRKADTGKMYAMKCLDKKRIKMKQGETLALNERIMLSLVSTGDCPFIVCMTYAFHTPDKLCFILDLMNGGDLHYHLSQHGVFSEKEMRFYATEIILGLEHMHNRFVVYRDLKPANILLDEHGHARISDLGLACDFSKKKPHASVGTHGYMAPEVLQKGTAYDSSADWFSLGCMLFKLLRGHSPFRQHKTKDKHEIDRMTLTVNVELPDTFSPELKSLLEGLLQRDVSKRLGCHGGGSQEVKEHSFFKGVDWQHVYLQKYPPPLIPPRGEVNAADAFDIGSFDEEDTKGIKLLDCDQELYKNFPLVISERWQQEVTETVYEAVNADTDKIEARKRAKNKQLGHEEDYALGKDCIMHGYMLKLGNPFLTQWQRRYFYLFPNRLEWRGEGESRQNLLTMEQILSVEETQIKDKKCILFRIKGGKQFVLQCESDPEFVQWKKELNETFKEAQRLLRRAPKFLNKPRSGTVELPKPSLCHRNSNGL
Sequence of 476 purified kinases (Homo sapiens, UniProt Q14004) (Q14004 whole entry): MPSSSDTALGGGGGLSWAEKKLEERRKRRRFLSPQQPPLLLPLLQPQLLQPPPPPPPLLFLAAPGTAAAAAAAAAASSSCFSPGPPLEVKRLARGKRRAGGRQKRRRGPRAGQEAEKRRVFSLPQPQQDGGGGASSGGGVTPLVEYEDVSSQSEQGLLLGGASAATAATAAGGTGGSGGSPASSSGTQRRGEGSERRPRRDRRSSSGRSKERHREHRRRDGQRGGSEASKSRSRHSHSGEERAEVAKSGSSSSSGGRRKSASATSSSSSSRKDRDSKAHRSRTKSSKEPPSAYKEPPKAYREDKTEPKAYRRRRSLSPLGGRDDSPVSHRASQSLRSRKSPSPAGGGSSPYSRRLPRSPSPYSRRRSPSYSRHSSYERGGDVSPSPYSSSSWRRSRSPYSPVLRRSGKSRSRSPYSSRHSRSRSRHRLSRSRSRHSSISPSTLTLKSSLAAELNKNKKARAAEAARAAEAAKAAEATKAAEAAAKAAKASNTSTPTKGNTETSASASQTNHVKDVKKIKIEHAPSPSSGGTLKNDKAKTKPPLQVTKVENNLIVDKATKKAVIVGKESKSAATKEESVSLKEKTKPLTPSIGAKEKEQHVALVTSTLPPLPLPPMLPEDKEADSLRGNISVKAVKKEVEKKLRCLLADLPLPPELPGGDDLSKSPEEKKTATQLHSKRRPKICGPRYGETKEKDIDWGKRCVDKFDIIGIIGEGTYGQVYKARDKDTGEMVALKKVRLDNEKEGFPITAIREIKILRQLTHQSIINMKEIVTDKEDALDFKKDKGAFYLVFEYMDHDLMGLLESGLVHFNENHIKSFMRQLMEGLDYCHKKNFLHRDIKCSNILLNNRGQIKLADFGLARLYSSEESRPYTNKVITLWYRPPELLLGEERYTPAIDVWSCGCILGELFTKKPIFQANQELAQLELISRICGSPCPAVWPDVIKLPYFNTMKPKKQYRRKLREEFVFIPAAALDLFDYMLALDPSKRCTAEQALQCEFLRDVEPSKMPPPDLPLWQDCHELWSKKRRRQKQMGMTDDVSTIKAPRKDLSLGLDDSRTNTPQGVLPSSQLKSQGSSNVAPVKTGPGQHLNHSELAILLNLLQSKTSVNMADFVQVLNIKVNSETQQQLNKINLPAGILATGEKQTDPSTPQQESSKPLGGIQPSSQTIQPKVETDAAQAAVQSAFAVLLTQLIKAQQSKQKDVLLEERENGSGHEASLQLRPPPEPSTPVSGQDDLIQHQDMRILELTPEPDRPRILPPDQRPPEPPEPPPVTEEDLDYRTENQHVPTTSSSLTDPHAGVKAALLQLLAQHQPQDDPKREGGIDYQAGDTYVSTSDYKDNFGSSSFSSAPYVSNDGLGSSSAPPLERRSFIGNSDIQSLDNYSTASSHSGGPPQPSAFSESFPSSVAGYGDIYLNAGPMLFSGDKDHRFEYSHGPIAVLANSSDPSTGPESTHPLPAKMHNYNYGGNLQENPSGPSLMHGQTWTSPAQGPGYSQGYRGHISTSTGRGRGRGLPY
Sequence of 476 purified kinases (Homo sapiens, UniProt Q6DT37) (Q6DT37 whole entry): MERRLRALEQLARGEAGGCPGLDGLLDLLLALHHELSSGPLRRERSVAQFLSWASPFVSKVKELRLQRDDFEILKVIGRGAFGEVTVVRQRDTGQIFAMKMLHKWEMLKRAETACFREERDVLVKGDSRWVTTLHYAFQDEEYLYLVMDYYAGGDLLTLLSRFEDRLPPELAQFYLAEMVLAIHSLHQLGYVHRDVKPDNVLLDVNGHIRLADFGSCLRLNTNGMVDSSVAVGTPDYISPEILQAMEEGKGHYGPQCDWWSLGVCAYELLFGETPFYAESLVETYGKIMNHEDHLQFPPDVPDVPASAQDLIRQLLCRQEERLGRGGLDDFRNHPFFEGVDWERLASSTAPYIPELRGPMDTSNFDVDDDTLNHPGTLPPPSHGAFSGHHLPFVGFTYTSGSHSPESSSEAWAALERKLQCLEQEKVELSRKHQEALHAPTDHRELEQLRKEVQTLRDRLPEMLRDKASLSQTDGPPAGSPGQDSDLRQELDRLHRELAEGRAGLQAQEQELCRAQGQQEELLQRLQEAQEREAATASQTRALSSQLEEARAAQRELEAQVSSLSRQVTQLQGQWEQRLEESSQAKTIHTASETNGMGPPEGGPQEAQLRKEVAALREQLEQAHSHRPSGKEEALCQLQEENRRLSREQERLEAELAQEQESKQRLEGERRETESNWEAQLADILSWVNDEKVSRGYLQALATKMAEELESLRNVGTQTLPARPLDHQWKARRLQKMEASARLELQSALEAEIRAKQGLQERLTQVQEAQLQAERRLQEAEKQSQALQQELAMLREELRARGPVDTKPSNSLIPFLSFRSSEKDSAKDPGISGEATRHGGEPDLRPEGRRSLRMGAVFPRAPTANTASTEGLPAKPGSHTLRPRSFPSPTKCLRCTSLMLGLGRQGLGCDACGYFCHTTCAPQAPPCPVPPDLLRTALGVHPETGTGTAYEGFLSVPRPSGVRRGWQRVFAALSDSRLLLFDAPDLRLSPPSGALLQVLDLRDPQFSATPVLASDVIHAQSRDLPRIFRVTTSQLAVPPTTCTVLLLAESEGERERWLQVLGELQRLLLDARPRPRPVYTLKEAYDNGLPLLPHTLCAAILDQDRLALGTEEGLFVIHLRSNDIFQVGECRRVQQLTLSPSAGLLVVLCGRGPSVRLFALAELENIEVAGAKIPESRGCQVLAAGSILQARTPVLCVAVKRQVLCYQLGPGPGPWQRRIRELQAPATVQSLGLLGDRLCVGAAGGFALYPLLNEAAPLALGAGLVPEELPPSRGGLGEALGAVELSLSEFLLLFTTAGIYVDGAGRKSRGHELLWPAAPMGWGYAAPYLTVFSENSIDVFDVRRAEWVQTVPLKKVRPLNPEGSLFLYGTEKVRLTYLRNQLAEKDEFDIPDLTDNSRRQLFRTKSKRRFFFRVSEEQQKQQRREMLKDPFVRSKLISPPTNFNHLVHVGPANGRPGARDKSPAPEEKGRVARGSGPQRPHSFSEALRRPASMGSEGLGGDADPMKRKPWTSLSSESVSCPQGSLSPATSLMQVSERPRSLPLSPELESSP
Sequence of 476 purified kinases (Homo sapiens, UniProt Q92630) (Q92630 whole entry): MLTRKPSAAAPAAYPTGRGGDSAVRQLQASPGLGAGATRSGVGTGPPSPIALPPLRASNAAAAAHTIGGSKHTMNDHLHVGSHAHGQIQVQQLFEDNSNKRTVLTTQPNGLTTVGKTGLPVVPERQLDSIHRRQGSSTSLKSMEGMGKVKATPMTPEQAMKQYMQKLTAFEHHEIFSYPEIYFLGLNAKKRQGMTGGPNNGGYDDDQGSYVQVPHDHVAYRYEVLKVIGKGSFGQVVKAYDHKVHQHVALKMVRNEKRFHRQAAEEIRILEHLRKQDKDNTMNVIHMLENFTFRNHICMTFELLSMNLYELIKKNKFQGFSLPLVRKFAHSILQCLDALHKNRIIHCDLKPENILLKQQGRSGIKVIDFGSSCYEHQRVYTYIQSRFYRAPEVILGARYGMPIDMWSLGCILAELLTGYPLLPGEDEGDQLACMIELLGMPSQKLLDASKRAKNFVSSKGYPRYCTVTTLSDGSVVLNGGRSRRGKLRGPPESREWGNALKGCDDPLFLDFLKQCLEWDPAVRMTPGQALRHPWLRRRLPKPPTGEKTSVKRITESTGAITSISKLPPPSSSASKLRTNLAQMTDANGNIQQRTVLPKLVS
Sequence of 476 purified kinases (Homo sapiens, UniProt P48729) (P48729 whole entry): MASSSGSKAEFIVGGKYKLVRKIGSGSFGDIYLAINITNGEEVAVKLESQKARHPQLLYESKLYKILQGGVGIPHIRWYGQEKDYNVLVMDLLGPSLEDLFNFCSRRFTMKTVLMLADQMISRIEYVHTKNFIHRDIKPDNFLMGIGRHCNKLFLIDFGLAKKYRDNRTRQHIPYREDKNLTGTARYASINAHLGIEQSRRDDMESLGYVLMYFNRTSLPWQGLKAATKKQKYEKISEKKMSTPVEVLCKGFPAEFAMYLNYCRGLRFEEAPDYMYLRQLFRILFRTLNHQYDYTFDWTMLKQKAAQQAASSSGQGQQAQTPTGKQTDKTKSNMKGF

**Q.** Which results are given for `Cc1nc(Nc2ncc(C(=O)Nc3c(C)cccc3Cl)s2)cc(N2CCN(CCO)CC2)n1` [Dasatinib]?
**A.** CAMK2A (CaMKII alpha) (kinase profiling) (476 purified kinases [1]; 10 nM): 5; CAMK2A (CaMKII alpha) (kinase profiling) (476 purified kinases [1]; 10 nM + 10 µM FKBP12): 7; CSNK1A1 (CK1 alpha 1) (kinase profiling) (476 purified kinases [2]; 10 nM): -1; CSNK1A1 (CK1 alpha 1) (kinase profiling) (476 purified kinases [2]; 10 nM + 10 µM FKBP12): 8; STK39 (STLK3) (LanthaScreen Binding) (476 purified kinases [3]; 10 nM compound): 4; STK39 (STLK3) (LanthaScreen Binding) (476 purified kinases [3]; 10 nM compound + 10 µM FKBP12): -5; MAP2K4 (MEK4) (LanthaScreen Binding) (476 purified kinases [4]; 10 nM compound): -1; MAP2K4 (MEK4) (LanthaScreen Binding) (476 purified kinases [4]; 10 nM compound + 10 µM FKBP12): -2; CDC7/DBF4 (LanthaScreen Binding) (476 purified kinases [5]; 10 nM compound): 7; CDC7/DBF4 (LanthaScreen Binding) (476 purified kinases [5]; 10 nM compound + 10 µM FKBP12): 16; TGFBR2 (LanthaScreen Binding) (476 purified kinases [6]; 10 nM compound): -5; TGFBR2 (LanthaScreen Binding) (476 purified kinases [6]; 10 nM compound + 10 µM FKBP12): -5; CAMK1G (CAMKI gamma) (kinase profiling) (476 purified kinases [7]; 10 nM): 1; CAMK1G (CAMKI gamma) (kinase profiling) (476 purified kinases [7]; 10 nM + 10 µM FKBP12): -5; STK17A (DRAK1) (LanthaScreen Binding) (476 purified kinases [8]; 10 nM compound): 3; STK17A (DRAK1) (LanthaScreen Binding) (476 purified kinases [8]; 10 nM compound + 10 µM FKBP12): 8; CDK13/cyclin K (LanthaScreen Binding) (476 purified kinases [9]; 10 nM compound): 4; CDK13/cyclin K (LanthaScreen Binding) (476 purified kinases [9]; 10 nM compound + 10 µM FKBP12): -3; FLT4 (VEGFR3) (kinase profiling) (476 purified kinases [10]; 10 nM): 7; FLT4 (VEGFR3) (kinase profiling) (476 purified kinases [10]; 10 nM + 10 µM FKBP12): 0; DMPK (LanthaScreen Binding) (476 purified kinases [11]; 10 nM compound): 1; DMPK (LanthaScreen Binding) (476 purified kinases [11]; 10 nM compound + 10 µM FKBP12): 4; MYLK4 (LanthaScreen Binding) (476 purified kinases [12]; 10 nM compound): 3; MYLK4 (LanthaScreen Binding) (476 purified kinases [12]; 10 nM compound + 10 µM FKBP12): 11; MINK1 (kinase profiling) (476 purified kinases [13]; 10 nM): 10; MINK1 (kinase profiling) (476 purified kinases [13]; 10 nM + 10 µM FKBP12): 10; ADRBK2 (GRK3) (kinase profiling) (476 purified kinases [14]; 10 nM): -2; ADRBK2 (GRK3) (kinase profiling) (476 purified kinases [14]; 10 nM + 10 µM FKBP12): 8; DYRK4 (kinase profiling) (476 purified kinases [15]; 10 nM): 1; DYRK4 (kinase profiling) (476 purified kinases [15]; 10 nM + 10 µM FKBP12): 7; PIP4K2A (Adapta) (476 purified kinases [16]; 10 nM compound): -15; PIP4K2A (Adapta) (476 purified kinases [16]; 10 nM compound + 10 µM FKBP12): 4; MAP3K5 (ASK1) (LanthaScreen Binding) (476 purified kinases [17]; 10 nM compound): 0; MAP3K5 (ASK1) (LanthaScreen Binding) (476 purified kinases [17]; 10 nM compound + 10 µM FKBP12): -1; NLK (LanthaScreen Binding) (476 purified kinases [18]; 10 nM compound): 6; NLK (LanthaScreen Binding) (476 purified kinases [18]; 10 nM compound + 10 µM FKBP12): -1; SRMS (Srm) (kinase profiling) (476 purified kinases [19]; 10 nM): 87; SRMS (Srm) (kinase profiling) (476 purified kinases [19]; 10 nM + 10 µM FKBP12): 86; STK32C (YANK3) (LanthaScreen Binding) (476 purified kinases [20]; 10 nM compound): -1; STK32C (YANK3) (LanthaScreen Binding) (476 purified kinases [20]; 10 nM compound + 10 µM FKBP12): -2; DYRK2 (LanthaScreen Binding) (476 purified kinases [21]; 10 nM compound): -6; DYRK2 (LanthaScreen Binding) (476 purified kinases [21]; 10 nM compound + 10 µM FKBP12): -4; PAK2 (PAK65) (kinase profiling) (476 purified kinases [22]; 10 nM): 11; PAK2 (PAK65) (kinase profiling) (476 purified kinases [22]; 10 nM + 10 µM FKBP12): 11; PIP5K1A (Adapta) (476 purified kinases [23]; 10 nM compound): -11; PIP5K1A (Adapta) (476 purified kinases [23]; 10 nM compound + 10 µM FKBP12): -9; CLK3 (kinase profiling) (476 purified kinases [24]; 10 nM): 6; CLK3 (kinase profiling) (476 purified kinases [24]; 10 nM + 10 µM FKBP12): 11; STK23 (MSSK1) (kinase profiling) (476 purified kinases [25]; 10 nM): 5; STK23 (MSSK1) (kinase profiling) (476 purified kinases [25]; 10 nM + 10 µM FKBP12): 7; CDC42 BPG (MRCKG) (kinase profiling) (476 purified kinases [26]; 10 nM): 7; CDC42 BPG (MRCKG) (kinase profiling) (476 purified kinases [26]; 10 nM + 10 µM FKBP12): -1; DCAMKL2 (DCK2) (kinase profiling) (476 purified kinases [27]; 10 nM): 7; DCAMKL2 (DCK2) (kinase profiling) (476 purified kinases [27]; 10 nM + 10 µM FKBP12): 12
